# Columns and labels:
# Mus musculus [1] = assay: Antiinflammatory activity against mouse assessed as inhibition of IL-1 beta-stimulated IL-6 expression at 75 mg/kg; assay type: functional
# Rattus norvegicus [2] = assay: Antiinflammatory activity against collagen-induced arthritis rat model assessed as inhibition of disease progression at 5 mg/kg, bid; assay type: functional
# [3] = molecular target: T1, Interleukin-1 receptor-associated kinase 4 (Homo sapiens, UniProt Q9NWZ3); assay: Inhibition of IRAK4 (unknown origin)
# T1 sequence (Q9NWZ3 whole entry): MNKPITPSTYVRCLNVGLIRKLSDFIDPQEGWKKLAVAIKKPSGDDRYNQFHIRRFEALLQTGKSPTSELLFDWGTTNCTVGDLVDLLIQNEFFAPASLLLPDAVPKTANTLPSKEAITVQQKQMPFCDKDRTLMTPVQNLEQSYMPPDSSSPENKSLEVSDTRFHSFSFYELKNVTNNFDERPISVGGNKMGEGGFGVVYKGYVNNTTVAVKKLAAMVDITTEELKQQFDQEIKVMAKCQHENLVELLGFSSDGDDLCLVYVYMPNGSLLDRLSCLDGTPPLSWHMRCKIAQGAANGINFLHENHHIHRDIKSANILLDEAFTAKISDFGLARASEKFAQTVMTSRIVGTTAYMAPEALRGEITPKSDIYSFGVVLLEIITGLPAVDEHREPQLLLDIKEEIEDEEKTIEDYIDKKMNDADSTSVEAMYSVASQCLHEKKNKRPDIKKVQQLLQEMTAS
# [4] = Clearance in rat at 1 mg/kg, iv; assay type: ADME, organism-based; conditions: in vivo
# Rattus norvegicus [5] = assay: Antiinflammatory activity against collagen-induced arthritis rat model assessed as inhibition of disease progression at 20 mg/kg, bid; assay type: functional
# [6] = Oral bioavailability in rat at 5 mg/kg; assay type: ADME, organism-based; conditions: in vivo
# [7] = Antiinflammatory activity against human dendritic cells assessed as inhibition of LPS induced IL-23 production; assay type: functional, cell-based; conditions: Dendritic cell
# PAD = assay: Induction of PAD activity against human A549 cells; assay type: toxicity, cell-based
# THP-1 = assay: Antiinflammatory activity against human THP-1 cells assessed as inhibition of LPS induced IL-23 production; assay type: functional, cell-based
# Rattus norvegicus [8] = assay: Antiinflammatory activity against collagen-induced arthritis rat model assessed as inhibition of disease progression at 10 mg/kg, bid; assay type: functional
# Rattus norvegicus [9] = assay: Antiinflammatory activity against collagen-induced arthritis rat model assessed as inhibition of disease progression at 30 mg/kg, bid; assay type: functional
# [10] = Drug metabolism in rat liver microsomes assessed as oxidative metabolite formation; assay type: ADME, Microsome
# Mus musculus [11] = assay: Antiinflammatory activity against mouse assessed as inhibition of IL-1 beta-stimulated IL-6 expression at 15 mg/kg; assay type: functional
# Mus musculus [12] = assay: Antiinflammatory activity against mouse assessed as inhibition of IL-1 beta-stimulated IL-6 expression at 5 mg/kg; assay type: functional
# Mus musculus [13] = assay: Antiinflammatory activity against mouse assessed as inhibition of IL-1 beta-stimulated IL-6 expression at 45 mg/kg; assay type: functional
IC50 [3] [nM],clearance [4] [mL/min/kg],bioavailability [6] [%],IC50 [7] [nM],IC50 (THP-1) [nM],Drug metabolism [10],SMILES,inhibition in vivo at 75 mg/kg (Mus musculus [1]) [%],inhibition in vivo at 5 mg/kg (Rattus norvegicus [2]) [%],inhibition in vivo at 20 mg/kg (Rattus norvegicus [5]) [%],IC50 (PAD) [nM],inhibition in vivo at 10 mg/kg (Rattus norvegicus [8]) [%],inhibition in vivo at 30 mg/kg (Rattus norvegicus [9]) [%],inhibition in vivo at 15 mg/kg (Mus musculus [11]) [%],inhibition in vivo at 5 mg/kg (Mus musculus [12]) [%],inhibition in vivo at 45 mg/kg (Mus musculus [13]) [%]
15,53,38,140,250,,NC(=O)[C@@H]1[C@H](Nc2nc(Nc3cc(F)cc(N4CCOCC4)c3)nc3ccoc23)[C@H]2C=C[C@@H]1C2,65,30,97,3200,56,100,,,
,113,,40,90,Metabolite_Detected,NC(=O)[C@@H]1[C@H](Nc2nc(Nc3cccc(C(=O)N4CCCC4)c3)nc3ccsc23)[C@H]2C=C[C@@H]1C2,,,,3800,,,,,
4.3,6,43,220,230,,CC(C)n1ncc2ccc(Nc3nc(N[C@H]4[C@@H](C(N)=O)[C@@H]5C=C[C@H]4C5)c4c(ccn4C(F)F)n3)cc21,64,,,820,,100,16,9,37

# From ChEMBL document CHEMBL5104140, “Bicyclic pyrimidine compounds as potent IRAK4 inhibitors” (Bioorg Med Chem Lett, 2022)
